What was measured:
[1] = target: T1, Alpha-2A adrenergic receptor (Homo sapiens, UniProt P08913)
T1 sequence (P08913 whole entry): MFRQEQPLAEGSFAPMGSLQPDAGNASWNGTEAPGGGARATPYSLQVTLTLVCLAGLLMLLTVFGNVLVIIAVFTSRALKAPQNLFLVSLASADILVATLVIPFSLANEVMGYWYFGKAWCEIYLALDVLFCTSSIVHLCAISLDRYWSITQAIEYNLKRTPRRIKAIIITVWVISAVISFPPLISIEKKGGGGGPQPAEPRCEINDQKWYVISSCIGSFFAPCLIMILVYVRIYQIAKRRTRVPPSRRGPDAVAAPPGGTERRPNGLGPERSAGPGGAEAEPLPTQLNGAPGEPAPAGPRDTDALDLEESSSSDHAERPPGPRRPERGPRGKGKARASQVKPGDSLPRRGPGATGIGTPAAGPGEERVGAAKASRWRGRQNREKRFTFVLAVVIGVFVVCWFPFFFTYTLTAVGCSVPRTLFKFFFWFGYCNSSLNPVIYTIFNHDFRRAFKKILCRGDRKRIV

B1 bradykinin receptor = target: T2, B1 bradykinin receptor (Homo sapiens, UniProt P46663)
T2 sequence (P46663 whole entry): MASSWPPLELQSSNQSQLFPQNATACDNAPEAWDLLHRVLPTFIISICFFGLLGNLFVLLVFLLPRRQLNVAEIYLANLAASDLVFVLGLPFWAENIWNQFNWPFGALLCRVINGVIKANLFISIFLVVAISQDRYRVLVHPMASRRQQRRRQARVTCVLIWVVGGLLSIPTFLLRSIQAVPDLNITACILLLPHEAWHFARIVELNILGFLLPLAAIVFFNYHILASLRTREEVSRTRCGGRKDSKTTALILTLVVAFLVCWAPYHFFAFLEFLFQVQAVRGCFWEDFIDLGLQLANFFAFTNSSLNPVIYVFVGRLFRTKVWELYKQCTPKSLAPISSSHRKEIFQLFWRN

D(4) dopamine receptor = target: T3, D(4) dopamine receptor (Homo sapiens, UniProt P21917)
T3 sequence (P21917 whole entry): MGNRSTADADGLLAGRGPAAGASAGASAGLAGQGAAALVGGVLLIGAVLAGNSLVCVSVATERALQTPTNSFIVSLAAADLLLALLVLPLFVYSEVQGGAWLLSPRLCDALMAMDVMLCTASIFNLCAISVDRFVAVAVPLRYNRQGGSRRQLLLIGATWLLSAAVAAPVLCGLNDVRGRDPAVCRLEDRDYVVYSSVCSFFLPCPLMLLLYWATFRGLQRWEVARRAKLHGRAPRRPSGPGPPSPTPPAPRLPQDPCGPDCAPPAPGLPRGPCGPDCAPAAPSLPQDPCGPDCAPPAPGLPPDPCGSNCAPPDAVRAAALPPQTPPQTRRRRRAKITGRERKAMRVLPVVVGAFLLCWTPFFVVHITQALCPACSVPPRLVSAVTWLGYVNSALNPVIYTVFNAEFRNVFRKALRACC

Prothrombin = Prothrombin (Homo sapiens, UniProt P00734); format: functional
[2] = target: 3',5'-cyclic-AMP phosphodiesterase 4A (Homo sapiens, UniProt P27815); format: functional
Chain of 3',5'-cyclic-AMP phosphodiesterase 4A (P27815 whole entry): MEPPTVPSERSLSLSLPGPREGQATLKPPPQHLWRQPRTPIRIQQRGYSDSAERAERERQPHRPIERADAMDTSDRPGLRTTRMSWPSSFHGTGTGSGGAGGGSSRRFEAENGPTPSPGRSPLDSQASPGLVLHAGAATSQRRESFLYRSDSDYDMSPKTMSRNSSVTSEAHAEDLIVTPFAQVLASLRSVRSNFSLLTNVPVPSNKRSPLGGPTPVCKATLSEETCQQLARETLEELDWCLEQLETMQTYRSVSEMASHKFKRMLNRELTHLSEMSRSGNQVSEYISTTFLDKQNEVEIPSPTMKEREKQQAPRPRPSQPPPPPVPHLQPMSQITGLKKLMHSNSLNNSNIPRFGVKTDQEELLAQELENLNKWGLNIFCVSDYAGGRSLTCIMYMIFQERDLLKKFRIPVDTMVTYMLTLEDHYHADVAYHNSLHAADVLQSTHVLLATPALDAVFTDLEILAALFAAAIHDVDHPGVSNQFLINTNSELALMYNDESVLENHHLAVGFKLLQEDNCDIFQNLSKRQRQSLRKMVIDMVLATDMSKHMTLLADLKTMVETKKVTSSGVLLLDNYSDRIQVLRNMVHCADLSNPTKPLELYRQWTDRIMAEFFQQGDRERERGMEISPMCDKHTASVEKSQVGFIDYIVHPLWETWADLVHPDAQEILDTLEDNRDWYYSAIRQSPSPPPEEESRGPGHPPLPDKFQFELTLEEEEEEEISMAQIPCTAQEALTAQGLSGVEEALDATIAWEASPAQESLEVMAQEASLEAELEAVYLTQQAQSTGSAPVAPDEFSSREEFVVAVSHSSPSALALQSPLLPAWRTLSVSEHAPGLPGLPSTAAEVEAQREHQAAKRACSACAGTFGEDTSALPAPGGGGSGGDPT

Thromboxane A2 receptor [3] = target: T4, Thromboxane A2 receptor (Homo sapiens, UniProt P21731); format: functional, cell-based
T4 sequence (P21731 whole entry): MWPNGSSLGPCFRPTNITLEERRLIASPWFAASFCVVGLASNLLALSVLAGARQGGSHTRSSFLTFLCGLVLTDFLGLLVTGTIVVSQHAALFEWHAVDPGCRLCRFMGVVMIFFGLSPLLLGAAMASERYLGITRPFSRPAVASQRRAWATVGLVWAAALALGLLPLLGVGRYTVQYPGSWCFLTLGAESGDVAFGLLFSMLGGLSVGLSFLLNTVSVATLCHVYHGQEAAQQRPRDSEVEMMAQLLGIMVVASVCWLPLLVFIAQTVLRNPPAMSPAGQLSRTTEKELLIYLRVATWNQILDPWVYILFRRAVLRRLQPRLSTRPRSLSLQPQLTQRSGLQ

Thromboxane A2 receptor [4] = target: T4, Thromboxane A2 receptor; format: functional, cell-based; remark: listed apart in the source
[5] = target: T5, Muscarinic acetylcholine receptor M4 (Homo sapiens, UniProt P08173)
T5 sequence (P08173 whole entry): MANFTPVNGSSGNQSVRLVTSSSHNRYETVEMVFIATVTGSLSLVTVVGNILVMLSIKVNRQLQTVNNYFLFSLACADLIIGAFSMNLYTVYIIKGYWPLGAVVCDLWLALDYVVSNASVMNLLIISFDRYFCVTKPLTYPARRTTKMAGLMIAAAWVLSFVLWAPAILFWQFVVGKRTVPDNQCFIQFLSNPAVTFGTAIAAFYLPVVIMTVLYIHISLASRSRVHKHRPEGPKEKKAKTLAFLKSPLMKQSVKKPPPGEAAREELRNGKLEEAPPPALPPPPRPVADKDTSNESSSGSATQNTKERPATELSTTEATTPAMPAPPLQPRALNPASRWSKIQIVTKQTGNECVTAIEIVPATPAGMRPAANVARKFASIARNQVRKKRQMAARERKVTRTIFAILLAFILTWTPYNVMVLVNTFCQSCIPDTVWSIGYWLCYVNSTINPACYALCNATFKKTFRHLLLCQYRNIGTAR

D(1B) dopamine receptor = D(1B) dopamine receptor (Homo sapiens, UniProt P21918)
Chain of D(1B) dopamine receptor (P21918 whole entry): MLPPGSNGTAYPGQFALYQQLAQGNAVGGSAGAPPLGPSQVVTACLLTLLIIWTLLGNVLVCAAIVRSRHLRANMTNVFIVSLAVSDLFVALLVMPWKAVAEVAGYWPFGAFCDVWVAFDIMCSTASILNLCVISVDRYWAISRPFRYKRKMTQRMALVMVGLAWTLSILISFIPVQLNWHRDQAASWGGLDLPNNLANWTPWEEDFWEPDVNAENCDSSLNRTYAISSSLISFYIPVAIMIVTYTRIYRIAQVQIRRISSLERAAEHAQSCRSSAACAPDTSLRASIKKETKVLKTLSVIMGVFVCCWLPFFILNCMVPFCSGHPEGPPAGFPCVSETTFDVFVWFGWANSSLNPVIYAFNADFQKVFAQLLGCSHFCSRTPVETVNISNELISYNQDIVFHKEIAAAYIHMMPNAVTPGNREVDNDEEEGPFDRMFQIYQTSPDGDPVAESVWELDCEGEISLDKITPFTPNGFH

[6] = target: 5-hydroxytryptamine receptor 5A (Homo sapiens, UniProt P47898)
Chain of 5-hydroxytryptamine receptor 5A (P47898 whole entry): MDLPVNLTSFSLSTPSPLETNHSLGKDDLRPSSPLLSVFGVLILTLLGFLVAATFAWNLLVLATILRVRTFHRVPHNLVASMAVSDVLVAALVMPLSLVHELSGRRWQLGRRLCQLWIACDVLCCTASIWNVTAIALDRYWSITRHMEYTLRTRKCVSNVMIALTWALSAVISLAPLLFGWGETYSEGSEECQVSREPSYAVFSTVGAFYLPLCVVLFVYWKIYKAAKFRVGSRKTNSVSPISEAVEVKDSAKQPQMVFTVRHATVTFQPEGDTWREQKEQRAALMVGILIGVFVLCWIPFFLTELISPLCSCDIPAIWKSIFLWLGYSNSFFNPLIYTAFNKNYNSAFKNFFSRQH

[7] = target: Rod cGMP-specific 3',5'-cyclic phosphodiesterase subunit alpha (Homo sapiens, UniProt P16499); format: functional
Chain of Rod cGMP-specific 3',5'-cyclic phosphodiesterase subunit alpha (P16499 whole entry): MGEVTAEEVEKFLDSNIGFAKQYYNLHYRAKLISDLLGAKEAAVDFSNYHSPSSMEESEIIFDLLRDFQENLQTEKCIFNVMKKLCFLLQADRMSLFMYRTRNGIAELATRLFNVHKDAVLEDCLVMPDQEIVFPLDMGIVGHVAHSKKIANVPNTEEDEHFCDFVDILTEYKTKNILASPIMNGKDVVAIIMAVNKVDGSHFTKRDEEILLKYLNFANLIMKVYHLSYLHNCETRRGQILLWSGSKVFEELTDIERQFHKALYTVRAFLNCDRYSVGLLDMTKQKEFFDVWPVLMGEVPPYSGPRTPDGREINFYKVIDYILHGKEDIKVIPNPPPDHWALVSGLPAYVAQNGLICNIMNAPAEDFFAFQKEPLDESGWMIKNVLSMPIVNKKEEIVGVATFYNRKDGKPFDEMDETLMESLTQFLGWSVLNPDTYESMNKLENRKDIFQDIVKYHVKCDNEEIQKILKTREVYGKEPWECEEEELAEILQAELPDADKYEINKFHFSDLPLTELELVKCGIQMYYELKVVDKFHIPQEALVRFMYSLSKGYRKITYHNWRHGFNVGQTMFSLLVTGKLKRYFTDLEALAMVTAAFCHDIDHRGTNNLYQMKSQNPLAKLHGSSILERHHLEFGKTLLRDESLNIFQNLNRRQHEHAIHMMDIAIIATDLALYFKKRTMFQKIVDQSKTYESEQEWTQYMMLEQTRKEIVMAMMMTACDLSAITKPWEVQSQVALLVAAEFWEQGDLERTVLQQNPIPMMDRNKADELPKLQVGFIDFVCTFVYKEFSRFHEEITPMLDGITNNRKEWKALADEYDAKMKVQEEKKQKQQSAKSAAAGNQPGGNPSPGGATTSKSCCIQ

Substance-K receptor = target: T6, Substance-K receptor (Homo sapiens, UniProt P21452)
T6 sequence (P21452 whole entry): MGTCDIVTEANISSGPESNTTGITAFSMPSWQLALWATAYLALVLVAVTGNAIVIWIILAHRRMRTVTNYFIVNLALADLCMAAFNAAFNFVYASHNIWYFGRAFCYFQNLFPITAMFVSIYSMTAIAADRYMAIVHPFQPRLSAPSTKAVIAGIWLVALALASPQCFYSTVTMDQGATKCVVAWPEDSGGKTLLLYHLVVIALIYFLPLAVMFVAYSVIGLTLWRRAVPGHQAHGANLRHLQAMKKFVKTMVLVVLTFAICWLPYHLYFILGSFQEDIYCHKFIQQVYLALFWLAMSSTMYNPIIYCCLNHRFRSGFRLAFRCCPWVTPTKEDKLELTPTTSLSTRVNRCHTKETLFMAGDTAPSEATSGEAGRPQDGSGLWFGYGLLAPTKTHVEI
Also: assay procedure not described here.

Row | Molecule | AC50 [1] | AC50 (B1 bradykinin receptor) | AC50 (D(4) dopamine receptor) | AC50 (Prothrombin) | AC50 [2] | AC50 (Thromboxane A2 receptor [3]) | AC50 (Thromboxane A2 receptor [4]) | AC50 [5] | AC50 (D(1B) dopamine receptor) | AC50 [6] | AC50 [7] | AC50 (Substance-K receptor)
1 | NCCCC(O)(P(=O)(O)O)P(=O)(O)O [ALENDRONIC ACID] | > 30 µM | > 30 µM | > 10 µM | > 30 µM | > 30 µM | > 30 µM | > 30 µM |  |  |  |  | 
2 | CCCC(C)(COC(N)=O)COC(=O)NC(C)C (stereo unspecified) [CARISOPRODOL] |  | > 30 µM | > 10 µM |  |  |  |  |  |  |  |  | 
3 | N[C@H](Cc1cc(I)c(Oc2cc(I)c(O)c(I)c2)c(I)c1)C(=O)O [DEXTROTHYROXINE] |  | > 30 µM |  |  |  |  |  |  |  |  |  | 
4 | CC(=O)OCC(CCn1cnc2cnc(N)nc21)COC(C)=O [FAMCICLOVIR] |  | > 30 µM | > 10 µM |  |  |  |  |  |  |  |  | 
5 | O=C(O)c1ccccc1Nc1cccc(C(F)(F)F)c1 [FLUFENAMIC ACID] |  | > 30 µM |  |  |  |  |  |  |  |  |  | 
6 | COC1=C(OC)C(=O)C(CCCCCCCCCCO)=C(C)C1=O [IDEBENONE] |  | > 30 µM | > 10 µM |  |  |  |  | > 10 µM | > 10 µM | > 10 µM | > 10 µM | > 10 µM
7 | O=C1CN=C(c2ccccc2)c2cc(Cl)ccc2N1 [NORDAZEPAM] |  | > 30 µM | > 10 µM |  |  |  |  | > 10 µM | > 10 µM | > 10 µM | > 10 µM | > 10 µM
8 | CC(CCc1ccccc1)NC(C)C(O)c1ccc(O)cc1 (stereo unspecified) [NYLIDRIN] |  | > 30 µM | > 10 µM |  |  |  |  | > 10 µM | > 10 µM | > 10 µM | > 10 µM | > 10 µM
9 | O=C1Nc2ccc(Cl)cc2C(c2ccccc2)=NC1O (stereo unspecified) [OXAZEPAM] |  | > 30 µM | > 10 µM |  |  |  |  | > 10 µM | > 10 µM | > 10 µM | > 10 µM | > 10 µM
10 | C[n+]1ccccc1/C=N/O [PRALIDOXIME] | > 30 µM |  |  | > 30 µM | > 30 µM | > 30 µM | > 30 µM |  |  |  |  | 
11 | CC(C)CC(N(C)C)C1(c2ccc(Cl)cc2)CCC1 (stereo unspecified) [SIBUTRAMINE] |  | > 30 µM | > 10 µM |  |  |  |  |  |  |  |  | 
12 | [H]/N=C(/N)N[C@H]1[C@H](O)[C@@H](O)[C@H](O[C@@H]2O[C@@H](C)[C@](O)(C=O)[C@H]2O[C@@H]2O[C@@H](CO)[C@H](O)[C@@H](O)[C@@H]2NC)[C@@H](N/C(N)=N\[H])[C@@H]1O [STREPTOMYCIN] |  | > 30 µM | > 10 µM |  |  |  |  |  |  |  |  | 
13 | N#C[C@@H]1CCCN1C(=O)CNC12CC3CC(CC(O)(C3)C1)C2 [VILDAGLIPTIN] |  |  | > 10 µM |  |  |  |  | > 10 µM | > 10 µM | > 10 µM | > 10 µM | > 10 µM
14 | COLISTIN | > 30 µM |  |  | > 30 µM | 12 µM | > 30 µM | > 30 µM |  |  |  |  | 
